Laboratory results taken from patent publication US20070219183A1, “Dihydropyrazolo[1,5-A]pyrimidine and dihydroimidazo[1,5-A]pyrimidine derivatives and methods of use thereof” (Wyeth, priority 2006, published 2007).

Biological target: T1, Flag/GST-tagged recombinant human B-Raf (Homo sapiens, UniProt P15056)
T1 construct: Flag; GST; made in house; host or cells: Sf9 insect cells (B-Raf); E. coli (Mek-1-GST)
Experiment: B-Raf Kinase to MEK1 ELISA
Type: biochemical
Conditions: phosphorylation of GST-MEK1 (50 nM final), phospho-MEK1 antibody/Europium readout; 60 minutes at RT
Excerpt: • TITLE: B-Raf Kinase to MEK1 ELISA • PURPOSE: To discover B-Raf Kinase inhibitors that can inhibit growth of tumor cells which contain oncogenic forms of Receptor Tyrosine Kinases or K-Ras, or B-Raf kinase.
Reagents: Flag/GST-tagged recombinant human B-Raf produced in Sf9 insect cells, human non-active Mek-1-GST (recombinant protein produced in E. coli); and a phospho-MEK1 specific poly-clonal Ab from Cell Signaling Technology (cat. #9121).
B-Raf-1 is used to phosphorylate GST-MEK1. MEK1 phosphorylation is measured by a phospho-specific antibody (from Cell Signaling Technology, cat. #9121) that detects phosphorylation of two serine residues at positions 217 and 221 on MEK1.
1. Assay Dilution Buffer (ADB): 20 mM MOPS, pH 7.2, 25 mM β-glycerol phosphate, 5 mM EGTA, 1 mM sodium orthovanadate, 1 mM dithiothreitol.
2. Magnesium/ATP Cocktail: 200 μM cold ATP and 40 mM magnesium chloride in ADB.
4. Active Kinase: Active B-Raf: used at ˜20 ng per assay point.
5. Non-active GST-MEK1: Use at 100 nM (50 nM final).
7. Anti-GST Ab (Pharmacia)
8. Anti-rabbit Ab/Europium conjugate (Wallac)
1. Add 25 μl of ADB containing B-Raf and Mek per assay (i.e. per well of a 96 well plate)
2. Add 25 μl of 0.2 mM ATP and 40 mM magnesium chloride in ADB.
3. Incubate for 60 minutes at RT in a shaking incubator.
4. Transfer this mixture to an anti-GST Ab coated 96 well plate (Nunc Immunosorb plates coated o/n with a-GST.
5. Incubate for 60 minutes at 30° C. in a shaking incubator
6. Wash 3× with TBST, add Anti-Phospho MEK1 (1:1000)
7. Incubate for 60 minutes at 30° C. in a shaking incubator
8. Wash 3× with TBST, add Anti-rabbit Ab/Europium conjugate (Wallac) (1:500)
9. Incubate for 60 minutes at 30° C. in a shaking incubator
10. Add 100 ul of Wallac Delfia Enhancement Solution and shake for 10 minutes.
11. Read plates in Wallac Victor model Plate Reader.
12. Collect data analyze in Excel for single point and IC50 determinations.
• Single point assay—% inhibition at […] (% Inhibition=1−cpd.treated sample/untreated control) • IC50 determinations—done on cpds from single pt assays with >80% inhibition. Typically Raf-1 assay is run at cpd concentrations from 10 μM to 30 nM in half log dilutions. (% inhibition is determined for each cpd concentration) • Data handling—Data is analyzed in Excel, and will transferred to Radis.

T1 sequence (P15056 whole entry): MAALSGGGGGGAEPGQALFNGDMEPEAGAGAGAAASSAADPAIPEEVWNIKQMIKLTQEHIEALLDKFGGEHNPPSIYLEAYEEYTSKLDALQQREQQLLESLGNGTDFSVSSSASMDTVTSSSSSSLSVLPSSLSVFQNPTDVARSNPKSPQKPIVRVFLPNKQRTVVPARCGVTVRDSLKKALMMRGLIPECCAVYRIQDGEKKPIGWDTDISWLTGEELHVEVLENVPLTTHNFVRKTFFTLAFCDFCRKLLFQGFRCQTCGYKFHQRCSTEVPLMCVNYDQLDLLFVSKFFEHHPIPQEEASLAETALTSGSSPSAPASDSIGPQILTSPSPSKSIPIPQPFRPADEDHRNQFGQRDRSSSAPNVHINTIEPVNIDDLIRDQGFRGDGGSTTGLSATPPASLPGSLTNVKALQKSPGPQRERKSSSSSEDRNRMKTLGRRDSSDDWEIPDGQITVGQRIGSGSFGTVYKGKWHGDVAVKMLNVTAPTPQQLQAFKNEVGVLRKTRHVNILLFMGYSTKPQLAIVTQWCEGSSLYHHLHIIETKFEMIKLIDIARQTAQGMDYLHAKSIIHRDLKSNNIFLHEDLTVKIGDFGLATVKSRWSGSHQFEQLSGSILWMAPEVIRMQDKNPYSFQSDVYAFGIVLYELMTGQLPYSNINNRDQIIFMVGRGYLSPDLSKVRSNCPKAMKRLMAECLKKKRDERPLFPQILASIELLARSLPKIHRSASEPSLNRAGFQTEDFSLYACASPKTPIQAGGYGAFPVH

Structure (SMILES)	IC50
CCOC(=O)c1cnn2c1N(C(=O)OC)CC=C2c1cccc(NC(=O)c2cccc(C(F)(F)F)c2)c1 [Example 13, 3-Ethyl 4-methyl 7-(3-{[3-(trifluoromethyl)benzoyl]amino}phenyl)pyrazolo[1,5-a]pyrimidine-3,4(5H)-dicarboxylate]	126 nM
CC(C)(C)OC(=O)NCC(=O)N1CC=C(c2cccc(NC(=O)c3cccc(C(F)(F)F)c3)c2)n2nccc21 [Example 14, tert-Butyl {2-oxo-2-[7-(3-{[3-(trifluoromethyl)benzoyl]amino}phenyl)pyrazolo[1,5-a]pyrimidin-4(5H)-yl]ethyl}carbamate]	> 10000 nM
CC#CCN1CC=C(c2cccc(NC(=O)c3cccc(C(F)(F)F)c3)c2)n2nccc21 [Example 7, N-[3-(4-But-2-yn-1-yl-4,5-dihydropyrazolo[1,5-a]pyrimidin-7-yl)phenyl]-3-(trifluoromethyl)benzamide]	868 nM
CC(=O)NCCC(=O)N1CC=C(c2cccc(NC(=O)c3cccc(C(F)(F)F)c3)c2)n2nccc21 [Example 19, N-{3-[4-(N-Acetyl-β-alanyl)-4,5-dihydropyrazolo[1,5-a]pyrimidin-7-yl]phenyl}-3-(trifluoromethyl)benzamide]	716 nM
CCOC(=O)N1CC=C(c2cccc(NC(=O)c3cccc(C(F)(F)F)c3)c2)n2nccc21 [Example 4, Ethyl 7-(3-{[3-(trifluoromethyl)benzoyl]amino}phenyl)pyrazolo[1,5-a]pyrimidine-4(5H)-carboxylate]	370 nM
O=C(Nc1cccc(C2=CCNc3ccnn32)c1)c1cccc(C(F)(F)F)c1 [Example 1, N-[3-(4,5-dihydropyrazolo[1,5-a]pyrimidin-7-yl)phenyl]-3-(trifluoromethyl)benzamide]	> 10000 nM
CC(C)(C)OC(=O)N1CC=C(c2cccc(N(C(=O)OC(C)(C)C)C(=O)c3cccc(C(F)(F)F)c3)c2)n2nccc21 [Example 12, tert-Butyl 7-(3-{(tert-butoxycarbonyl)[3-(trifluoromethyl)benzoyl]amino}phenyl)pyrazolo[1,5-a]pyrimidine-4(5H)-carboxylate 4(5H)-carboxylate]	> 10000 nM
CC(=O)N1CC=C(c2cccc(NC(=O)c3cccc(C(F)(F)F)c3)c2)n2nccc21 [Example 10, N-[3-(4-Acetyl-4,5-dihydropyrazolo[1,5-a]pyrimidin-7-yl)phenyl]-3-(trifluoromethyl)benzamide]	3770 nM
CCNC(=O)N1CC=C(c2cccc(NC(=O)c3cccc(C(F)(F)F)c3)c2)n2nccc21 [Example 9, N-Ethyl-7-(3-{[3-(trifluoromethyl)benzoyl]amino}phenyl)pyrazolo[1,5-a]pyrimidine-4(5H)-carboxamide]	> 10000 nM
COC(=O)N1CC=C(c2cccc(NC(=O)c3cccc(C(F)(F)F)c3)c2)n2nccc21 [Example 3, Methyl 7-(3-{[3-(trifluoromethyl)benzoyl]amino}phenyl)pyrazolo[1,5-a]pyrimidine-4(5H)-carboxylate]	163 nM
CC(=O)NCC(=O)N1CC=C(c2cccc(NC(=O)c3cccc(C(F)(F)F)c3)c2)n2nccc21 [Example 16, N-{3-[4-(N-Acetylglycyl)-4,5-dihydropyrazolo[1,5-a]pyrimidin-7-yl]phenyl}-3-(trifluoromethyl)benzamide]	1770 nM

More lines, now with the values ahead:

IC50	Structure (SMILES)
683 nM	CS(=O)(=O)N1CC=C(c2cccc(NC(=O)c3cccc(C(F)(F)F)c3)c2)n2nccc21 [Example 2, N-{3-[4-(Methylsulfonyl)-4,5-dihydropyrazolo[1,5-a]pyrimidin-7-yl]phenyl}-3-(trifluoromethyl)benzamide]
1620 nM	CC(C)NC(=O)N1CC=C(c2cccc(NC(=O)c3cccc(C(F)(F)F)c3)c2)n2nccc21 [Example 5, N-isopropyl-7-(3-{[3-(trifluoromethyl)benzoyl]amino}phenyl)pyrazolo[1,5-a]pyrimidine-4(5H)-carboxamide]
> 10000 nM	NCCC(=O)N1CC=C(c2cccc(NC(=O)c3cccc(C(F)(F)F)c3)c2)n2nccc21 [Example 18, N-[3-(4-β-Alanyl-4,5-dihydropyrazolo[1,5-a]pyrimidin-7-yl)phenyl]-3-(trifluoromethyl)benzamide]
572 nM	CCOC(=O)c1cnn2c1N(C(C)=O)CC=C2c1cccc(NC(=O)c2cccc(C(F)(F)F)c2)c1 [Example 11, Ethyl 4-acetyl-7-(3-{[3-(trifluoromethyl)benzoyl]amino}phenyl)-4,5-dihydropyrazolo[1,5-a]pyrimidine-3-carboxylate]
161 nM	O=C(Nc1ccc(Cl)c(C2=CCNc3ccnn32)c1)c1cccc(C(F)(F)F)c1 [Example 20, N-[4-Chloro-3-(4,5-dihydropyrazolo[1,5-a]pyrimidin-7-yl)phenyl]-3-(trifluoromethyl)benzamide]
> 10000 nM	NCC(=O)N1CC=C(c2cccc(NC(=O)c3cccc(C(F)(F)F)c3)c2)n2nccc21 [Example 15, N-[3-(4-Glycyl-4,5-dihydropyrazolo[1,5-a]pyrimidin-7-yl)phenyl]-3-(trifluoromethyl)benzamide]
278 nM	CCOC(=O)c1cnn2c1NCC=C2c1cccc(NC(=O)c2cccc(C(F)(F)F)c2)c1 [Example 8, Ethyl 7-(3-{[3-(trifluoromethyl)benzoyl]amino}phenyl)-4,5-dihydropyrazolo[1,5-a]pyrimidine-3-carboxylate]
815 nM	CC(C)(C)OC(=O)N1CC=C(c2cccc(NC(=O)c3cccc(C(F)(F)F)c3)c2)n2nccc21 [Example 6, tert-Butyl 7-(3-{[3-(trifluoromethyl)benzoyl]amino}phenyl)pyrazolo[1,5-a]pyrimidine-4(5H)-carboxylate]
385 nM	CC(C)(C)OC(=O)NCCC(=O)N1CC=C(c2cccc(NC(=O)c3cccc(C(F)(F)F)c3)c2)n2nccc21 [Example 17, tert-Butyl {3-oxo-3-[7-(3-{[3-(trifluoromethyl)benzoyl]amino}phenyl)pyrazolo[1,5-a]pyrimidin-4(5H)-yl]propyl}carbamate]
